Assays:
[1] = biological target: Misshapen-like kinase 1 (Homo sapiens) (UniProt Q8N4C8); conditions: Compound concentration 1000.0 nM
[2] = biological target: Serine/threonine-protein kinase 33 (Homo sapiens) (UniProt Q9BYT3); conditions: Compound concentration 1000.0 nM
[3] = biological target: Cyclin-dependent kinase 4 (Homo sapiens) (UniProt P11802); conditions: Compound concentration 1000.0 nM
[4] = biological target: cAMP-dependent protein kinase catalytic subunit alpha (Homo sapiens) (UniProt P17612); conditions: Compound concentration 1000.0 nM
[5] = biological target: Tyrosine-protein kinase BTK (Homo sapiens) (UniProt Q06187); conditions: Compound concentration 1000.0 nM
Chain of Tyrosine-protein kinase BTK (Homo sapiens) (Q06187 whole entry): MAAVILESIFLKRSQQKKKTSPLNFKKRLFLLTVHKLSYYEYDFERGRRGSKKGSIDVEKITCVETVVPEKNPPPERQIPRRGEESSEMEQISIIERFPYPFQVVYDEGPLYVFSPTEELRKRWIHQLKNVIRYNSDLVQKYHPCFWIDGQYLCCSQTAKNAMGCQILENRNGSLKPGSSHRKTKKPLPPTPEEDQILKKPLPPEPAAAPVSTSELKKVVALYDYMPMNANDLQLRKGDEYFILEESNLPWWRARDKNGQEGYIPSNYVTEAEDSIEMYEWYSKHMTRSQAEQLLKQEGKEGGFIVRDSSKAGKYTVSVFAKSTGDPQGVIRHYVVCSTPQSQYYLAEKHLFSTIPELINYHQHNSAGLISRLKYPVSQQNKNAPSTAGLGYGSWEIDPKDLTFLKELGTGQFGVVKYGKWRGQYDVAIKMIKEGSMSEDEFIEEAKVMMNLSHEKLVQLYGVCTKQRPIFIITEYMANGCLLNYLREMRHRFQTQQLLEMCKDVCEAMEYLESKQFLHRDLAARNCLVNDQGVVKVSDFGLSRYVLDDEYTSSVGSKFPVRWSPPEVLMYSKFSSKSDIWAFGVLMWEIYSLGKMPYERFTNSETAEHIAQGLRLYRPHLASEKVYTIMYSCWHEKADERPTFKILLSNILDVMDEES

[6] = biological target: Cyclin-dependent kinase 15 (Homo sapiens) (UniProt Q96Q40); conditions: Compound concentration 1000.0 nM
[7] = biological target: Serine/threonine-protein kinase 17B (Homo sapiens) (UniProt O94768); conditions: Compound concentration 1000.0 nM
[8] = biological target: Myosin light chain kinase family member 4 (Homo sapiens) (UniProt Q86YV6); conditions: Compound concentration 1000.0 nM
Chain of Myosin light chain kinase family member 4 (Homo sapiens) (Q86YV6 whole entry): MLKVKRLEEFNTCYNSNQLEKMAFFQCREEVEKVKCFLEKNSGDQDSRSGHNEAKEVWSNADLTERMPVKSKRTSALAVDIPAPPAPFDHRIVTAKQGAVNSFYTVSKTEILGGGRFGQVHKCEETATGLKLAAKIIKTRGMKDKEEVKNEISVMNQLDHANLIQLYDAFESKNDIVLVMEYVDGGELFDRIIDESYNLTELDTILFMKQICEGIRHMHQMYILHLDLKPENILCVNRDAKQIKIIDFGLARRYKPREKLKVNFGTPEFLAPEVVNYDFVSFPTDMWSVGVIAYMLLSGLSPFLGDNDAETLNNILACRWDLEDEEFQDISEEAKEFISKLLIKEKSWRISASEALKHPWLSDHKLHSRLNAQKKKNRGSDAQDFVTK

[9] = tested on: Tyrosine-protein kinase ABL1 (Homo sapiens), P00519 [E255K]; conditions: Compound concentration 1000.0 nM
[10] = biological target: Ephrin type-A receptor 5 (Homo sapiens) (UniProt P54756); conditions: Compound concentration 1000.0 nM
[11] = biological target: 5'-AMP-activated protein kinase catalytic subunit alpha-1 (Homo sapiens) (UniProt Q13131); conditions: Compound concentration 1000.0 nM
[12] = biological target: Serine/threonine-protein kinase MARK1 (Homo sapiens) (UniProt Q9P0L2); conditions: Compound concentration 1000.0 nM
[13] = biological target: SRSF protein kinase 3 (Homo sapiens) (UniProt Q9UPE1); conditions: Compound concentration 1000.0 nM
[14] = biological target: Ankyrin repeat and protein kinase domain-containing protein 1 (Homo sapiens) (UniProt Q8NFD2); conditions: Compound concentration 1000.0 nM
[15] = biological target: Proto-oncogene tyrosine-protein kinase ROS (Homo sapiens) (UniProt P08922); conditions: Compound concentration 1000.0 nM
Chain of Proto-oncogene tyrosine-protein kinase ROS (Homo sapiens) (P08922 whole entry): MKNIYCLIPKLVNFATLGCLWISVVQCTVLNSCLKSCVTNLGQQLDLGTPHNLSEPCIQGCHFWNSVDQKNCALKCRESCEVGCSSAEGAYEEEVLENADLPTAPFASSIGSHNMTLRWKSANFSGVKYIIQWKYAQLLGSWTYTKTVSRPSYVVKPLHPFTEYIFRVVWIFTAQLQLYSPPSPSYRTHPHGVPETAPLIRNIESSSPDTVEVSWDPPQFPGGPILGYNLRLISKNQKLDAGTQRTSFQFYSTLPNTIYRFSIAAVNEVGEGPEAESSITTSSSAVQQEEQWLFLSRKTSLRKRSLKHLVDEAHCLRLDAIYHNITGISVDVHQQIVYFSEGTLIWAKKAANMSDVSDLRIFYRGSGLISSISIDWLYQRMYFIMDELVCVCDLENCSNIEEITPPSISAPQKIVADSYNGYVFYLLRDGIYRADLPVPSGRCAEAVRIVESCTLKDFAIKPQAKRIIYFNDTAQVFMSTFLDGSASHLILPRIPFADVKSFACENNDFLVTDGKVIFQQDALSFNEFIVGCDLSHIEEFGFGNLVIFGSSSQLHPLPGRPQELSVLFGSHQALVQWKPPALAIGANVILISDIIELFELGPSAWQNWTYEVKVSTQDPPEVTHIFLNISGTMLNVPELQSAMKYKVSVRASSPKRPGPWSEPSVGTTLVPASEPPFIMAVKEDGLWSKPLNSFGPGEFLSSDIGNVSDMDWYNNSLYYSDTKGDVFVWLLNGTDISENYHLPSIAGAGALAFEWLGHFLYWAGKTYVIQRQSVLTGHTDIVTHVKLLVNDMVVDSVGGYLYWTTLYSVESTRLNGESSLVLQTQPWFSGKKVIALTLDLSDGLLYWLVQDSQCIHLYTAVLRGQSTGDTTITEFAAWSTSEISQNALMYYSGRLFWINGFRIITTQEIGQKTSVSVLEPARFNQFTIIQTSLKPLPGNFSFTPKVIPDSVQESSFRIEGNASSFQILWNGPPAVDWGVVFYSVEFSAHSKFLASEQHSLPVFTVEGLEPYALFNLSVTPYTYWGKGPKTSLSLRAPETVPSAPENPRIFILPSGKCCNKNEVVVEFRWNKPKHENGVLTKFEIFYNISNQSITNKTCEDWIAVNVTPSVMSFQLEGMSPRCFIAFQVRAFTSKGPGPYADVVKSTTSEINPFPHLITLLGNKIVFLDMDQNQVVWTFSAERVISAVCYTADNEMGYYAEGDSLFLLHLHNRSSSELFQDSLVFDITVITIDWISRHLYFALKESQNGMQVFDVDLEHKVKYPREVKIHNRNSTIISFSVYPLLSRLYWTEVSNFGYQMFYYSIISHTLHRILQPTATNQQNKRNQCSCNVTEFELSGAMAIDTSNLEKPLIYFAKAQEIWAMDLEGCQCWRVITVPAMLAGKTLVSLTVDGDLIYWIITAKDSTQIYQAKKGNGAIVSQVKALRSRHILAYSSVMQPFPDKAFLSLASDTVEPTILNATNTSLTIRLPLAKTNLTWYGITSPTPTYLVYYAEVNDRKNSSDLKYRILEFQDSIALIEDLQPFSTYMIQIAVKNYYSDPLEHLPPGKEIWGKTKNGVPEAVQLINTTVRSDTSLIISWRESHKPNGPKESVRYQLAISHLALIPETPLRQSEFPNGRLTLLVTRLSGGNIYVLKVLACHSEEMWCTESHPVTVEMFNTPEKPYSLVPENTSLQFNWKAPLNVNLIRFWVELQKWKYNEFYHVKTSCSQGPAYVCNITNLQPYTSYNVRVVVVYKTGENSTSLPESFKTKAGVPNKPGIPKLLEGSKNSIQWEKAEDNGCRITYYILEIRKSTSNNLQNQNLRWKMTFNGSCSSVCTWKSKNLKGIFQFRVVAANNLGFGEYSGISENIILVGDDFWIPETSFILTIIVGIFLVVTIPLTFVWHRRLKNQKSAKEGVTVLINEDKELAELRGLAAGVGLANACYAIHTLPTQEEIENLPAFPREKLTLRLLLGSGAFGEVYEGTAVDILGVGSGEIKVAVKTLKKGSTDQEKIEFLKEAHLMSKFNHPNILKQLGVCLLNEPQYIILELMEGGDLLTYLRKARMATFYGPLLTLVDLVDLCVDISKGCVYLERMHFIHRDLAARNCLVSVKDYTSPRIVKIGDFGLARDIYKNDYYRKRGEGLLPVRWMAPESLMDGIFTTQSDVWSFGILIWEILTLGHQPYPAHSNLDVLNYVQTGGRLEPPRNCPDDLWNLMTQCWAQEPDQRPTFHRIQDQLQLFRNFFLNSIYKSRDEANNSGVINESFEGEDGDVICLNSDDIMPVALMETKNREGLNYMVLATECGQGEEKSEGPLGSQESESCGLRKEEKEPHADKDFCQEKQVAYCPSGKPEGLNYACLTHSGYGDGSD

[16] = tested on: Epidermal growth factor receptor (Homo sapiens), P00533 [L858R]; conditions: Compound concentration 1000.0 nM
[17] = biological target: Serine/threonine-protein kinase Sgk2 (Homo sapiens) (UniProt Q9HBY8); conditions: Compound concentration 1000.0 nM
[18] = biological target: Mitogen-activated protein kinase 1 (Homo sapiens) (UniProt P28482); conditions: Compound concentration 1000.0 nM
[19] = biological target: Serine/threonine-protein kinase PLK3 (Homo sapiens) (UniProt Q9H4B4); conditions: Compound concentration 1000.0 nM
Chain of Serine/threonine-protein kinase PLK3 (Homo sapiens) (Q9H4B4 whole entry, looked up): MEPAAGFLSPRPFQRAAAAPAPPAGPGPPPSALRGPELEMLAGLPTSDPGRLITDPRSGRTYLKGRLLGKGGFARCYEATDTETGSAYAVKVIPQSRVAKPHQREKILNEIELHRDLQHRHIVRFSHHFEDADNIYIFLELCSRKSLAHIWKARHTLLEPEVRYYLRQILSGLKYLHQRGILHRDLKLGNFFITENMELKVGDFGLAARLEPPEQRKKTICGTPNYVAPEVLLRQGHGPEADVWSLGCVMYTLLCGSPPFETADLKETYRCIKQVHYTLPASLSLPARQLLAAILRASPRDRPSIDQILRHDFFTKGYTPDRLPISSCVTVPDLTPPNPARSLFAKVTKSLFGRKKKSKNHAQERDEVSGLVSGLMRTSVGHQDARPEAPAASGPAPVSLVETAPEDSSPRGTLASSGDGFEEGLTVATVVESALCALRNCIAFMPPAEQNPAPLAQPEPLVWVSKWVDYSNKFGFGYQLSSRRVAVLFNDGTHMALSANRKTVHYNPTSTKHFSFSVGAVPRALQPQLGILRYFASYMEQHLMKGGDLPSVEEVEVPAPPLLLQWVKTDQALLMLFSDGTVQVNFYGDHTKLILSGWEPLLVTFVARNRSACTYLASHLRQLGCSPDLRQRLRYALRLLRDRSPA

[20] = biological target: Serine/threonine-protein kinase DCLK1 (Homo sapiens) (UniProt O15075); conditions: Compound concentration 1000.0 nM
[21] = biological target: TGF-beta receptor type-2 (Homo sapiens) (UniProt P37173); conditions: Compound concentration 1000.0 nM
[22] = biological target: Sigma intracellular receptor 2 (Homo sapiens, UniProt Q5BJF2); assay: GPCRScan assay: inhibition of Sigma 2; design: radioligand conc. used [nm] 5.0, parental cells HEKT
Chain of Sigma intracellular receptor 2 (Q5BJF2 whole entry): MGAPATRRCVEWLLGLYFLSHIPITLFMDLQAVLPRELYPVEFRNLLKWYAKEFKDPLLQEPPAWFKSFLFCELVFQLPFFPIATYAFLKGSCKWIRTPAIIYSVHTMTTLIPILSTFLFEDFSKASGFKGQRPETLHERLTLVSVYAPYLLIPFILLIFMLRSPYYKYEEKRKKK

[23] = biological target: Serine/threonine-protein kinase DCLK2 (Homo sapiens) (UniProt Q8N568); conditions: Compound concentration 1000.0 nM
[24] = biological target: 5'-AMP-activated protein kinase catalytic subunit alpha-2 (Homo sapiens) (UniProt P54646); conditions: Compound concentration 1000.0 nM
[25] = biological target: Tyrosine-protein kinase Lck (Homo sapiens) (UniProt P06239); conditions: Compound concentration 1000.0 nM
[26] = biological target: Serine/threonine-protein kinase Nek11 (Homo sapiens) (UniProt Q8NG66); conditions: Compound concentration 1000.0 nM
[27] = tested on: Proto-oncogene tyrosine-protein kinase receptor Ret (Homo sapiens), P07949 [M918T]; conditions: Compound concentration 1000.0 nM
[28] = biological target: GABA-A receptor; anion channel (Rattus norvegicus) (UniProt O09028+P15431+P18506+P18508+P19969+P20236+P23574+P23576+P28471+P28473+P30191+P62813+P63079+P63138+Q91ZM7+Q9ES14); conditions: Compound concentration 10.0 uM
[29] = biological target: Phosphatidylinositol 4-kinase beta (Homo sapiens) (UniProt Q9UBF8); conditions: Compound concentration 1000.0 nM
[30] = biological target: MAP kinase-activated protein kinase 5 (Homo sapiens) (UniProt Q8IW41); conditions: Compound concentration 1000.0 nM
[31] = biological target: Serine/threonine-protein kinase Sgk3 (Homo sapiens) (UniProt Q96BR1); conditions: Compound concentration 1000.0 nM
[32] = biological target: Transient receptor potential cation channel subfamily M member 6 (Homo sapiens) (UniProt Q9BX84); conditions: Compound concentration 1000.0 nM
[33] = biological target: Mitogen-activated protein kinase 15 (Homo sapiens) (UniProt Q8TD08); conditions: Compound concentration 1000.0 nM
[34] = biological target: Death-associated protein kinase 1 (Homo sapiens) (UniProt P53355); conditions: Compound concentration 1000.0 nM
[35] = biological target: D(1A) dopamine receptor (Homo sapiens) (UniProt P21728); conditions: Compound concentration 10.0 uM
[36] = tested on: ALK tyrosine kinase receptor (Homo sapiens), Q9UM73 [L1196M]; conditions: Compound concentration 1000.0 nM
[37] = biological target: Serine/threonine-protein kinase 35 (Homo sapiens) (UniProt Q8TDR2); conditions: Compound concentration 1000.0 nM
[38] = biological target: Sodium-dependent noradrenaline transporter (Homo sapiens) (UniProt P23975); conditions: Compound concentration 10.0 uM
[39] = biological target: Serine/threonine-protein kinase D2 (Homo sapiens) (UniProt Q9BZL6); conditions: Compound concentration 1000.0 nM
[40] = biological target: MAP/microtubule affinity-regulating kinase 3 (Homo sapiens) (UniProt P27448); conditions: Compound concentration 1000.0 nM
[41] = biological target: Cyclin-dependent kinase 2 homolog (Plasmodium falciparum (isolate 3D7)) (UniProt P61075); conditions: Compound concentration 1000.0 nM
Chain of Cyclin-dependent kinase 2 homolog (Plasmodium falciparum (isolate 3D7)) (P61075 whole entry): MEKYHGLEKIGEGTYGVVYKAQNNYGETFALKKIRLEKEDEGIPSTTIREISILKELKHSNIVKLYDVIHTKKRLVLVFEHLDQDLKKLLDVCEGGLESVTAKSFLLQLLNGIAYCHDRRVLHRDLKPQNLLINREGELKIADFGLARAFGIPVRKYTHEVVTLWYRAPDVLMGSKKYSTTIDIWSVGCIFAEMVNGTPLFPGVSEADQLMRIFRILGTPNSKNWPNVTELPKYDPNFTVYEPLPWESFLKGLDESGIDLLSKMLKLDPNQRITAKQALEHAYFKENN

[42] = biological target: Serine/threonine-protein kinase pim-3 (Homo sapiens) (UniProt Q86V86); conditions: Compound concentration 1000.0 nM
[43] = biological target: Dual specificity mitogen-activated protein kinase kinase 7 (Homo sapiens) (UniProt O14733); conditions: Compound concentration 1000.0 nM
[44] = biological target: Cyclin-dependent kinase 5 (Homo sapiens) (UniProt Q00535); conditions: Compound concentration 1000.0 nM

Chain of Serine/threonine-protein kinase 33 (Homo sapiens) (Q9BYT3 whole entry, looked up): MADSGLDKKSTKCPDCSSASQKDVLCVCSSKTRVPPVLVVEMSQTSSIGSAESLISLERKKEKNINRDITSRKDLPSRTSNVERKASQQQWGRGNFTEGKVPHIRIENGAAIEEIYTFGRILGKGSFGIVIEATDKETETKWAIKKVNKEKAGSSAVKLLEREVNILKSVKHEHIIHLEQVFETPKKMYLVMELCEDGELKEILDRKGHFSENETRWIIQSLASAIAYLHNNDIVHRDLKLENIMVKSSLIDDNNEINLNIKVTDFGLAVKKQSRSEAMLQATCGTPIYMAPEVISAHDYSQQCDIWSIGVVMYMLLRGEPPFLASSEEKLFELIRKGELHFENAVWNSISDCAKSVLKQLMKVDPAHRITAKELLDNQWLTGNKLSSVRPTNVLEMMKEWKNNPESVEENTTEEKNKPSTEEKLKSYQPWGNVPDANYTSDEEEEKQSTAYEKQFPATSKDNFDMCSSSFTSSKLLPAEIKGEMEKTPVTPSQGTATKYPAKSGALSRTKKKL

Q: Which results are given for `O=C(Nc1ccc(Oc2ccc(F)cc2)cc1)N1CCc2ncccc2[C@H]1c1ccc(F)cc1` [BAY-897]?
A: residual activity [1]: 99%; residual activity [2]: 50%; residual activity [3]: 100%; residual activity [4]: 95%; residual activity [5]: 93%; residual activity [6]: 86%; residual activity [7]: 89%; residual activity [8]: 97%; residual activity [9]: 100%; residual activity [10]: 100%; residual activity [11]: 96%; residual activity [12]: 81%; residual activity [13]: 100%; residual activity [14]: 92%; residual activity [15]: 76%; residual activity [16]: 96%; residual activity [17]: 100%; residual activity [18]: 100%; residual activity [19]: 87%; residual activity [20]: 100%; residual activity [21]: 91%; Ki [22]: 676 nM; residual activity [23]: 87%; residual activity [24]: 51%; residual activity [25]: 94%; residual activity [26]: 100%; residual activity [27]: 100%; inhibition [28]: 26.9%; residual activity [29]: 75%; residual activity [30]: 75%; residual activity [31]: 97%; residual activity [32]: 100%; residual activity [33]: 94%; residual activity [34]: 87%; inhibition [35]: 39.1%; residual activity [36]: 100%; residual activity [37]: 80%; inhibition [38]: 32.5%; residual activity [39]: 100%; residual activity [40]: 100%; residual activity [41]: 87%; residual activity [42]: 79%; residual activity [43]: 100%; residual activity [44]: 100%

Q: Which residual activity [1] does the source give for `O=C(Nc1cnc(Oc2ccc(F)cc2)nc1)N1CCc2ncccc2[C@@H]1c1ccc(F)cc1` [BAY-899] here?
A: 100%

Q: And the residual activity [2]?
A: 69%

Q: And the residual activity [3]?
A: 100%

Q: What about the residual activity [4] of the same molecule?
A: 82%

Q: What about the residual activity [5] of the same molecule?
A: 92%

Q: And the residual activity [6]?
A: 93%

Q: What about the residual activity [7] of the same molecule?
A: 92%

Q: And the residual activity [8]?
A: 88%

Q: And the residual activity [9]?
A: 100%

Q: And the residual activity [10]?
A: 100%

Q: What about the residual activity [11] of the same molecule?
A: 88%

Q: What about the residual activity [12] of the same molecule?
A: 71%

Q: What about the residual activity [13] of the same molecule?
A: 100%

Q: And the residual activity [14]?
A: 100%

Q: What about the residual activity [15] of the same molecule?
A: 82%

Q: What about the residual activity [16] of the same molecule?
A: 92%

Q: And the residual activity [17]?
A: 79%

Q: And the residual activity [18]?
A: 100%

Q: And the residual activity [19]?
A: 87%

Q: And the residual activity [20]?
A: 83%

Q: And the residual activity [21]?
A: 100%

Q: And the Ki [22]?
A: 2050 nM

Q: And the residual activity [23]?
A: 90%

Q: And the residual activity [24]?
A: 79%

Q: And the residual activity [25]?
A: 83%

Q: What about the residual activity [26] of the same molecule?
A: 100%

Q: What about the residual activity [27] of the same molecule?
A: 95%

Q: And the inhibition [28]?
A: 19.4%

Q: And the residual activity [29]?
A: 89%

Q: And the residual activity [30]?
A: 91%

Q: And the residual activity [31]?
A: 100%

Q: What about the residual activity [32] of the same molecule?
A: 100%

Q: What about the residual activity [33] of the same molecule?
A: 93%

Q: And the residual activity [34]?
A: 78%

Q: What about the inhibition [35] of the same molecule?
A: 23.7%

Q: And the residual activity [36]?
A: 100%

Q: And the residual activity [37]?
A: 71%

Q: And the inhibition [38]?
A: 10.2%

Q: What about the residual activity [39] of the same molecule?
A: 85%

Q: And the residual activity [40]?
A: 100%

Q: What about the residual activity [41] of the same molecule?
A: 100%

Q: And the residual activity [42]?
A: 82%

Q: And the residual activity [43]?
A: 95%

Q: And the residual activity [44]?
A: 100%
